# In ChEMBL document CHEMBL1201862, “PubChem BioAssay data set” (2004):
#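 Five compound concentrations were applied to cells in 96-well plates for 48 hours; endpoints were derived by simple linear interpolation of the resulting dose-response curve. At the GI50, growth is halved.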 Active and inactive are the calls of the source. Cut-off read from the data, not from the text of the source: active = GI50 up to about 1.1 µM and inactive = higher.
# Columns and labels:
# Assay in all cases: NCI anticancer screen, dose series, 48 h
# [1] = test system: 786-0
# [2] = test system: A498
# [3] = test system: A549
# [4] = test system: ACHN
# [5] = test system: BT-549
# [6] = test system: CAKI-1
# [7] = test system: CCRF-CEM
# [8] = test system: COLO 205
# [9] = test system: DU-145
# [10] = test system: EKVX
# [11] = test system: HCC 2998
# [12] = test system: HCT-116
# [13] = test system: HCT-15
# [14] = test system: HL-60
# [15] = test system: HOP-62
# [16] = test system: HOP-92
# [17] = test system: HT-29
# [18] = test system: Hs-578T
# [19] = test system: IGROV-1
# [20] = test system: K562
# [21] = test system: KM12
# [22] = test system: LOX IMVI
# [23] = test system: M14
# [24] = test system: MCF7
# [25] = test system: MDA-MB-231
# [26] = test system: MDA-MB-435
# [27] = test system: MDA-N
# [28] = test system: MOLT-4
# [29] = test system: Malme-3M
# [30] = test system: NCI-H226
# [31] = test system: NCI-H23
# [32] = test system: NCI-H460
# [33] = test system: NCI-H522
# [34] = test system: NCI/ADR-RES
# [35] = test system: OVCAR-3
# [36] = test system: OVCAR-4
# [37] = test system: OVCAR-5
# [38] = test system: OVCAR-8
# [39] = test system: PC-3
# [40] = test system: RXF 393
# [41] = test system: SF-268
# [42] = test system: SF-295
# [43] = test system: SF-539
# [44] = test system: SK-MEL-28
# [45] = test system: SK-MEL-2
# [46] = test system: SK-MEL-5
# [47] = test system: SK-OV-3
# [48] = test system: SN12C
# [49] = test system: SNB-19
# [50] = test system: SNB-75
# [51] = test system: SW-620
# [52] = test system: T47D
# [53] = test system: TK-10
# [54] = test system: U-251
# [55] = test system: UACC-257
# [56] = test system: UACC-62
# [57] = test system: UO-31
# [58] = test system: RPMI-8226
smiles,measurement,setting,value
O=C(C1OC1c1ccc([N+](=O)[O-])cc1)C12CC3CC(CC(C3)C1)C2 (stereo not given),GI50,[1],9.98 µM (inactive)
same,GI50,[2],20.9 µM (inactive)
same,GI50,[3],25.7 µM (inactive)
same,GI50,[4],18.5 µM (inactive)
same,GI50,[5],23.8 µM (inactive)
same,GI50,[6],20.3 µM (inactive)
same,GI50,[7],2.79 µM (inactive)
same,GI50,[8],19.2 µM (inactive)
same,GI50,[9],18.2 µM (inactive)
same,GI50,[10],18.8 µM (inactive)
same,GI50,[11],20.7 µM (inactive)
same,GI50,[12],7.59 µM (inactive)
same,GI50,[13],13.2 µM
same,GI50,[14],3.46 µM (inactive)
same,GI50,[15],24.3 µM (inactive)
same,GI50,[16],20.3 µM (inactive)
same,GI50,[17],21.4 µM (inactive)
same,GI50,[18],19 µM (inactive)
same,GI50,[19],16.4 µM (inactive)
same,GI50,[20],13.1 µM (inactive)
same,GI50,[21],14.7 µM (inactive)
same,GI50,[22],1.69 µM (inactive)
same,GI50,[23],15.2 µM (inactive)
same,GI50,[24],13.3 µM (inactive)
same,GI50,[25],16.7 µM (inactive)
same,GI50,[26],12.3 µM (inactive)
same,GI50,[27],11.6 µM (inactive)
same,GI50,[28],18.5 µM (inactive)
same,GI50,[29],16.9 µM (inactive)
same,GI50,[30],17.2 µM (inactive)
same,GI50,[31],13.4 µM (inactive)
same,GI50,[32],13.6 µM (inactive)
same,GI50,[33],29 µM (inactive)
same,GI50,[34],17.6 µM (inactive)
same,GI50,[35],13.7 µM (inactive)
same,GI50,[36],17.8 µM (inactive)
same,GI50,[37],21 µM (inactive)
same,GI50,[38],16.6 µM (inactive)
same,GI50,[39],14.6 µM (inactive)
same,GI50,[40],22.5 µM (inactive)
same,GI50,[41],18.5 µM (inactive)
same,GI50,[42],12.3 µM (inactive)
same,GI50,[43],15.3 µM (inactive)
same,GI50,[44],17.6 µM (inactive)
same,GI50,[45],23.4 µM (inactive)
same,GI50,[46],15.6 µM (inactive)
same,GI50,[47],23.2 µM (inactive)
same,GI50,[48],13.1 µM (inactive)
same,GI50,[49],17.5 µM (inactive)
same,GI50,[50],19.1 µM (inactive)
same,GI50,[51],20.7 µM (inactive)
same,GI50,[52],16.6 µM (inactive)
same,GI50,[53],18.1 µM (inactive)
same,GI50,[54],11.9 µM (inactive)
same,GI50,[55],14.7 µM (inactive)
same,GI50,[56],12.1 µM (inactive)
same,GI50,[57],18.3 µM (inactive)
CC1CC(C)[C@H](O)C([C@H](O)CC2CC(=O)N(C)C(=O)C2)C1 (stereo not given in full),GI50,[1],> 100 µM (inactive)
same,GI50,[2],> 100 µM (inactive)
same,GI50,[3],> 100 µM (inactive)
same,GI50,[4],> 100 µM (inactive)
same,GI50,[5],> 100 µM (inactive)
same,GI50,[6],> 100 µM (inactive)
same,GI50,[7],> 100 µM (inactive)
same,GI50,[8],> 100 µM (inactive)
same,GI50,[9],> 100 µM (inactive)
same,GI50,[10],> 100 µM (inactive)
same,GI50,[11],> 100 µM (inactive)
same,GI50,[12],> 100 µM (inactive)
same,GI50,[13],> 100 µM
same,GI50,[14],> 100 µM (inactive)
same,GI50,[15],> 100 µM (inactive)
same,GI50,[16],32.3 µM (inactive)
same,GI50,[17],> 100 µM (inactive)
same,GI50,[18],> 100 µM (inactive)
same,GI50,[19],> 100 µM (inactive)
same,GI50,[20],> 100 µM (inactive)
same,GI50,[21],> 100 µM (inactive)
same,GI50,[22],> 100 µM (inactive)
same,GI50,[23],> 100 µM (inactive)
same,GI50,[24],> 100 µM (inactive)
same,GI50,[25],> 100 µM (inactive)
same,GI50,[26],> 100 µM (inactive)
same,GI50,[27],> 100 µM (inactive)
same,GI50,[28],> 100 µM (inactive)
same,GI50,[29],> 100 µM (inactive)
same,GI50,[30],> 100 µM (inactive)
same,GI50,[31],> 100 µM (inactive)
same,GI50,[32],> 100 µM (inactive)
same,GI50,[33],57 µM (inactive)
same,GI50,[34],> 100 µM (inactive)
same,GI50,[35],> 100 µM (inactive)
same,GI50,[36],> 100 µM (inactive)
same,GI50,[37],> 100 µM (inactive)
same,GI50,[38],> 100 µM (inactive)
same,GI50,[39],> 100 µM (inactive)
same,GI50,[58],> 100 µM (inactive)
same,GI50,[40],> 100 µM (inactive)
same,GI50,[41],> 100 µM (inactive)
same,GI50,[42],82.4 µM (inactive)
same,GI50,[43],> 100 µM (inactive)
same,GI50,[44],> 100 µM (inactive)
same,GI50,[45],> 100 µM (inactive)
same,GI50,[46],> 100 µM (inactive)
same,GI50,[47],> 100 µM (inactive)
same,GI50,[48],> 100 µM (inactive)
same,GI50,[49],> 100 µM (inactive)
same,GI50,[50],95.1 µM (inactive)
same,GI50,[51],> 100 µM (inactive)
same,GI50,[52],> 100 µM (inactive)
same,GI50,[53],> 100 µM (inactive)
same,GI50,[54],> 100 µM (inactive)
same,GI50,[55],> 100 µM (inactive)
same,GI50,[56],> 100 µM (inactive)
same,GI50,[57],> 100 µM (inactive)
